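A five-concentration, 48-hour dose response in 96-well plates underlies each endpoint, interpolated linearly between surrounding concentrations. GI50: concentration for 50% inhibition of growth.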 The source made the active and inactive calls. Rule as the data show it: active = GI50 up to about 1.1 µM and inactive = higher.
Tests used:
Experiment in all cases: inhibition of tumour cell growth, NCI panel, 48 h
786-0 = test system: 786-0
A549 = test system: A549
ACHN = test system: ACHN
CAKI-1 = test system: CAKI-1
CCRF-CEM = test system: CCRF-CEM
COLO 205 = test system: COLO 205
DLD-1 = test system: DLD-1
DMS-114 = test system: DMS-114
DMS-273 = test system: DMS-273
HCT-116 = test system: HCT-116
HCT-15 = test system: HCT-15
HL-60 = test system: HL-60
HOP-18 = test system: HOP-18
HOP-62 = test system: HOP-62
HOP-92 = test system: HOP-92
HT-29 = test system: HT-29
IGROV-1 = test system: IGROV-1
K562 = test system: K562
KM-20L2 = test system: KM-20L2
KM12 = test system: KM12
LOX IMVI = test system: LOX IMVI
LXFL 529 = test system: LXFL 529
M14 = test system: M14
M19-MEL = test system: M19-MEL
MOLT-4 = test system: MOLT-4
Malme-3M = test system: Malme-3M
NCI-H226 = test system: NCI-H226
NCI-H23 = test system: NCI-H23
NCI-H460 = test system: NCI-H460
NCI-H522 = test system: NCI-H522
OVCAR-3 = test system: OVCAR-3
OVCAR-4 = test system: OVCAR-4
OVCAR-5 = test system: OVCAR-5
OVCAR-8 = test system: OVCAR-8
RPMI-8226 = test system: RPMI-8226
RXF 393 = test system: RXF 393
SF-268 = test system: SF-268
SF-295 = test system: SF-295
SF-539 = test system: SF-539
SK-MEL-28 = test system: SK-MEL-28
SK-MEL-2 = test system: SK-MEL-2
SK-MEL-5 = test system: SK-MEL-5
SK-OV-3 = test system: SK-OV-3
SN12C = test system: SN12C
SNB-75 = test system: SNB-75
SNB-78 = test system: SNB-78
SR = test system: SR
SW-620 = test system: SW-620
TK-10 = test system: TK-10
U-251 = test system: U-251
UACC-257 = test system: UACC-257
UACC-62 = test system: UACC-62
UO-31 = test system: UO-31

Compound: CC(=O)Nc1ccc(-c2nnc(SCC(=O)Nc3ccccc3[N+](=O)[O-])o2)cc1
- GI50 (786-0): > 100 µM (inactive)
- GI50 (A549): > 100 µM (inactive)
- GI50 (ACHN): > 100 µM (inactive)
- GI50 (CAKI-1): > 100 µM (inactive)
- GI50 (CCRF-CEM): > 100 µM (inactive)
- GI50 (COLO 205): > 100 µM (inactive)
- GI50 (DLD-1): > 100 µM (inactive)
- GI50 (DMS-114): 27.9 µM (inactive)
- GI50 (DMS-273): > 100 µM (inactive)
- GI50 (HCT-116): > 100 µM (inactive)
- GI50 (HCT-15): > 100 µM
- GI50 (HL-60): 52 µM (inactive)
- GI50 (HOP-18): > 100 µM (inactive)
- GI50 (HOP-62): > 100 µM (inactive)
- GI50 (HOP-92): > 100 µM (inactive)
- GI50 (HT-29): > 100 µM (inactive)
- GI50 (IGROV-1): > 100 µM (inactive)
- GI50 (K562): 93.1 µM (inactive)
- GI50 (KM-20L2): > 100 µM (inactive)
- GI50 (KM12): > 100 µM (inactive)
- GI50 (LOX IMVI): > 100 µM (inactive)
- GI50 (LXFL 529): 29.9 µM (inactive)
- GI50 (M14): > 100 µM (inactive)
- GI50 (M19-MEL): > 100 µM (inactive)
- GI50 (MOLT-4): 71.4 µM (inactive)
- GI50 (Malme-3M): > 100 µM (inactive)
- GI50 (NCI-H226): > 100 µM (inactive)
- GI50 (NCI-H23): > 100 µM (inactive)
- GI50 (NCI-H460): > 100 µM (inactive)
- GI50 (NCI-H522): 45.9 µM (inactive)
- GI50 (OVCAR-3): 34.4 µM (inactive)
- GI50 (OVCAR-4): 73.1 µM (inactive)
- GI50 (OVCAR-5): > 100 µM (inactive)
- GI50 (OVCAR-8): > 100 µM (inactive)
- GI50 (RPMI-8226): > 100 µM (inactive)
- GI50 (RXF 393): > 100 µM (inactive)
- GI50 (SF-268): > 100 µM (inactive)
- GI50 (SF-295): 98.6 µM (inactive)
- GI50 (SF-539): 34.6 µM (inactive)
- GI50 (SK-MEL-28): > 100 µM (inactive)
- GI50 (SK-MEL-2): > 100 µM (inactive)
- GI50 (SK-MEL-5): > 100 µM (inactive)
- GI50 (SK-OV-3): > 100 µM (inactive)
- GI50 (SN12C): > 100 µM (inactive)
- GI50 (SNB-75): 92.7 µM (inactive)
- GI50 (SNB-78): > 100 µM (inactive)
- GI50 (SR): 40.7 µM (inactive)
- GI50 (SW-620): > 100 µM (inactive)
- GI50 (TK-10): > 100 µM (inactive)
- GI50 (U-251): > 100 µM (inactive)
- GI50 (UACC-257): > 100 µM (inactive)
- GI50 (UACC-62): > 100 µM (inactive)
- GI50 (UO-31): 81.3 µM (inactive)
